Experimental data published in US9604923B2 (H. LEE MOFFITT CANCER CENTER AND RESEARCH INSTITUTE, INC., priority 2006, dated 2017).

Experiments:
Stat5:5 = assay: STATs DNA-binding activity in vitro, EMSA with MGFe probe; set-up: species or system mouse
[1] = tested on: pShc, pErk1/2, pSrc, pTyr profile in NIH3T3/v-Src or EGF-stimulated NIH3T3/hEGFR; assay: Western blot for other signaling proteins; format: cell-based, mouse
[2] = tested on: β-Casein promoter-driven Luc; assay: Luciferase reporter assay, v-Src co-transfected NIH3T3; format: cell-based, mouse; conditions: 100 μM, 24 hours
Excerpt: (§1) […]; Turkson, J. et al. Mol. Cell.
[…]. […] […].

NIH3T3/v-Src [3] = assay: Viable cell number by trypan blue exclusion; format: cell-based, mouse; conditions: 100 μM, four days
Excerpt: (§2) […]. Values are the mean and S.D. of 3-4 independent determinations.
(§3) . The present inventors next determined whether this Stat3 activity inhibitor is able to inhibit the anchorage-dependent and -independent (transformation) growth of human and mouse cancer cell lines and whether this inhibition is dependent on the presence of persistently-active Stat3. […]. […]

NIH3T3 [4] = assay: Viable cell number by trypan blue exclusion; format: cell-based, mouse; conditions: 100 μM, four days
Excerpt: as §2, §3

[5] = tested on: MDA-MB-231, MDA-MB-435 and MDA-MB-468; assay: Viable cell number by trypan blue exclusion; format: cell-based, human; conditions: 100 μM, four days
Excerpt: as §2, §3

MDA-MB-453 [6] = assay: Viable cell number by trypan blue exclusion; format: cell-based, human; conditions: 100 μM, four days
Excerpt: as §2, §3

NIH3T3/v-Ras = assay: Soft-agar colony formation assay; format: cell-based, mouse; conditions: 100 μM every 3 days
Procedure: (§4) Briefly, each well contained 1.5 ml of 1% agarose in Dulbeco's modified Eagle's medium as the bottom layer and 1.5 ml of 0.5% agarose in Dulbeco's modified Eagle's medium containing 4000 or 6000 NIH3T3/v-Src or NIH3T3/v-Ras fibroblasts, respectively, as the top layer. […]. Colonies were quantified by staining with 20 μl of 1 mg/ml iodonitrotetrazolium violet, incubating at 37° C. overnight, and counting the next day.

NIH3T3/v-Src [7] = assay: Soft-agar colony formation assay; format: cell-based, mouse; conditions: 100 μM every 3 days
Procedure: as §4

MDA-MB-435 = assay: Apoptosis by Annexin V binding and Flow Cytometry; format: cell-based, human
Procedure: (§5) In some cases, cells were first transfected with Stat3C, ST3-NT, or ST3-SH2 domain or mock-transfected for 24 hours prior to treatment with compound for an additional 24-48 hours. Cells were then detached and analyzed by Annexin V binding (BD Biosciences, San Diego) according to the manufacturer's protocol and Flow Cytometry to quantify the percent apoptosis.

MDA-MB-453 [8] = assay: Apoptosis by Annexin V binding and Flow Cytometry; format: cell-based, human; conditions: 100 μM or less, 48 hours
Procedure: as §5

NIH3T3/v-Src [9] = assay: Apoptosis by Annexin V binding and Flow Cytometry; format: cell-based, mouse
Procedure: . In FIG. 4B, human breast carcinoma MDA-MB-231 cells were transfected with pcDNA3 (mock), Stat3C or untransfected (Non), or the v-Src transformed mouse fibroblasts (NIH3T3/v-Src) were transfected with pcDNA3 (mock), N-terminus of Stat3 (ST3-NT) or the Stat3 SH2 domain (ST3-SH2) for […]. […]. Values are the mean and S.D. of six independent determinations. Western blot data are representative of 3 independent analyses.
as §5

NIH3T3 [10] = assay: Apoptosis by Annexin V binding and Flow Cytometry; format: cell-based, mouse
Procedure: as §5

MDA-MB-231 = assay: Apoptosis by Annexin V binding and Flow Cytometry; format: cell-based, human; conditions: untransfected or mock-transfected cells; 100 μM
Procedure: as §1, §5
[…]. To this end, the breast carcinoma MDA-MB-231 cells that harbor activated Stat3 were transiently transfected with Stat3C and evaluated for apoptosis. […] […]. There is increased in the background level of cell death, which could be due to the effects of transfection. […].

[11] = tested on: Cyclin D1, Bcl-xL and Survivin in NIH3T3/v-Src; assay: Immunoblot of Stat3-regulated gene products; format: cell-based, mouse; conditions: 100, 48 hours
[12] = tested on: Cyclin D1, Bcl-xL and Survivin in MDA-MB-231; assay: Immunoblot of Stat3-regulated gene products; format: cell-based, human; conditions: 100, 48 hours
[13] = tested on: human breast (MDA-MB-231) tumor; assay: Human breast tumor xenografts in athymic nude mice; format: in vivo, mouse
[14] = molecular target: FLAG-ST3:Stat3-YFP complex (Homo sapiens, UniProt P40763); conditions: NIH3T3/v-Src, 24 hours
Sequence of FLAG-ST3:Stat3-YFP complex (P40763 whole entry, one chain of several): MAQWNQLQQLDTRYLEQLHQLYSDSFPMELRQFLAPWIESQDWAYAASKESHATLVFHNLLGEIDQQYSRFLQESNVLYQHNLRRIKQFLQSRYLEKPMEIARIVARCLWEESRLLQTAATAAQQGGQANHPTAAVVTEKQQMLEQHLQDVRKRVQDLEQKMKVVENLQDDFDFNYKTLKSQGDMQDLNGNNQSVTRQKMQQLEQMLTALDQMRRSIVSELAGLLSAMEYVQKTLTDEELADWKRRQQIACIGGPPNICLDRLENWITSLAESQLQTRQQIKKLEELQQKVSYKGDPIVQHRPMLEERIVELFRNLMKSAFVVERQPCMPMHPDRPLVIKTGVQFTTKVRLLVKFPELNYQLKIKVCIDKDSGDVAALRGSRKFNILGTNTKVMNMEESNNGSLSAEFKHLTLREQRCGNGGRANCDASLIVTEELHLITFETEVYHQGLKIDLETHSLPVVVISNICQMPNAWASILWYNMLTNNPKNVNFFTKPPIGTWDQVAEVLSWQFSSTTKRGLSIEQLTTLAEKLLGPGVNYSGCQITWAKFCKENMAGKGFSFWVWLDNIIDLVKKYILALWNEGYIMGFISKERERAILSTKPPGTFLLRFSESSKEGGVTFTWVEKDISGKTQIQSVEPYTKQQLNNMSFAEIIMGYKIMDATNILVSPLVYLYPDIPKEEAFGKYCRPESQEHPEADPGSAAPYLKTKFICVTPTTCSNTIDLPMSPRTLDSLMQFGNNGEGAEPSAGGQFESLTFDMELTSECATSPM

[15] = tested on: constitutively-active Stat3 in NIH3T3/v-Src fibroblasts; conditions: 100 μM, by 24 hours
Procedure: (§6) To investigate non-specific effects, SDS-PAGE and Western blot analysis was performed on whole-cell lysates from mouse fibroblasts transformed by v-Src (NIH3T3/v-Src) or overexpressing the human EGFR (NIH3T3/hEGFR) and stimulated by EGF to determine the ability to inhibit other signaling proteins.

[16] = tested on: constitutively-active Stat3 in MDA-MB-231, MDA-MB-435 and MDA-MB-468 cells; conditions: 100 μM; by 24 hours in text, 48 hours in FIG. 2E legend
Procedure: as §6

[17] = tested on: pTyr705 Stat3 in NIH3T3/v-Src fibroblasts; conditions: 100 μM, 24-hour treatment
[18] = tested on: Stat3-dependent luciferase reporter pLucTKS3; conditions: dose-dependent manner
[19] = tested on: Stat3-independent luciferase reporter pLucSRE; conditions: 100 μM, 24 hours
Stat3 = Stat3 (Homo sapiens, UniProt P40763); conditions: 10, 30, and 100 μM pre-incubation
Sequence of Stat3 (P40763 2-770 limits assumed): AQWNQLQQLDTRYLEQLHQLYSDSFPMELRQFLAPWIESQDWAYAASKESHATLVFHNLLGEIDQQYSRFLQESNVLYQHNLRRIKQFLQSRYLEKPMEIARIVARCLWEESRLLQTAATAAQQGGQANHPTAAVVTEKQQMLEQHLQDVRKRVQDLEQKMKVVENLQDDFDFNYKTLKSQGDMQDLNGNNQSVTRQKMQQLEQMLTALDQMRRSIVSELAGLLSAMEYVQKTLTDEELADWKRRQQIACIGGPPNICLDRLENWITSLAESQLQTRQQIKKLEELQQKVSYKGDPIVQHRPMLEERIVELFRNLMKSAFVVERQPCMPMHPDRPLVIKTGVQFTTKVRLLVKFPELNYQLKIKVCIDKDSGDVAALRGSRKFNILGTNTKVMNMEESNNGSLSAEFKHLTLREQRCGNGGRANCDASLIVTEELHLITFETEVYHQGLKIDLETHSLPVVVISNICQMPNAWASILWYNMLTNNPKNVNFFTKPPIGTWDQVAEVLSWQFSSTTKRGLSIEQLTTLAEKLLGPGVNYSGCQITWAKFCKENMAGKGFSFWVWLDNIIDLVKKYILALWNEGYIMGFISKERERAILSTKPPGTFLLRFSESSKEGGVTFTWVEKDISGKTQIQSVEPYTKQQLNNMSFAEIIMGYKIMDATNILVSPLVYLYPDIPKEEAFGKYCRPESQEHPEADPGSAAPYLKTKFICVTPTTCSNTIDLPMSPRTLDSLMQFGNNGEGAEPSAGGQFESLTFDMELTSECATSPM
Excerpt: Values are the mean and S.D. of eight tumor-bearing mice each.

Question: What does the source list for `Cc1ccc(S(=O)(=O)OCC(=O)Nc2ccc(C(=O)O)c(O)c2)cc1` [Compound S3I-201, 2-Hydroxy-4-(2-(tosyloxy)acetamido)benzoic acid]?
Answer: preference for Stat3 over Stat5 (less potency for Stat5) (Stat5:5; DNA-binding activity): 2 fold; IC50 (Stat5:5; Table 4, listed as 74859, read-out: IC50 values for the inhibition of STATs DNA-binding activity in vitro, Stat5:5): 166 µM; phosphorylation of Shc (pShc), Erk1/2 (pErk1/2), or Src (pSrc) ([1]; 100 μM, 24 hours): no significant effect; total Erk1/2 protein levels ([1]; 24 hours): unchanged; pTyr profile, anti-pTyr antibody 4G10 clone ([1]; NIH3T3/v-Src, 24-hour treatment): no significant changes; v-Src-mediated induction of β-Casein promoter Luc [2]: not affected; viable cell numbers and growth (NIH3T3/v-Src [3]): significantly reduced viable cell numbers and inhibited growth; growth and viability (NIH3T3 [4]): not significantly altered; viable cell numbers and growth [5]: significantly reduced viable cell numbers and inhibited growth; growth and viability (MDA-MB-453 [6]): not significantly altered; soft-agar growth (NIH3T3/v-Ras): unaffected; growth in soft-agar suspension (NIH3T3/v-Src [7]): significantly inhibited; sensitivity to apoptosis induction (MDA-MB-435; 30 μM): more sensitive; apoptosis (MDA-MB-435; 30-100, 48 hours): significant apoptosis; sensitivity to apoptosis induction (MDA-MB-453 [8]): less sensitive; apoptosis (NIH3T3/v-Src [9]; 30-100, 48 hours): significant apoptosis; apoptosis (NIH3T3/v-Src [9]; cells overexpressing the ST3-NT region): strong induction of apoptosis; apoptosis (NIH3T3/v-Src [9]; mock-transfected cells): strongly induced; apoptosis (NIH3T3/v-Src [9]; overexpression of the Stat3-SH2 domain): diminished the apoptotic effects; sensitivity to apoptosis induction (NIH3T3 [10]; 100 μM or less, 48 hours): less sensitive; cytotoxicity (NIH3T3 [10]; 300 μM or higher, independent of Stat3 activation status): general, non-specific cytotoxicity; apoptosis (MDA-MB-231): 50-80%; expression of the Cyclin D1, Bcl-xL and Survivin proteins [11]: significant reduction in expression; expression of the Cyclin D1, Bcl-xL and Survivin proteins [12]: significant reduction in expression; tumor growth compared to control (vehicle-treated) tumors ([13]; 5 mg/kg i.v. every 2 or every 3 days for two weeks): strong growth inhibition; tumor growth upon termination of treatment ([13]; data not shown): no resumption of tumor growth; total Stat3 protein in residual tumor tissue ([13]; treated mice T1 and T2): remained unchanged; pTyr Stat3 (pYStat3) in residual tumor tissue ([13]; treated mice T1 and T2 compared to control): minimal to no detection; Stat3 DNA binding activity in residual tumor tissue (EMSA) ([13]; treated mice T1 and T2 compared to control tumor): strong inhibition; FLAG-ST3 protein in the Stat3-YFP immunoprecipitates [14]: no detectable level; Stat3-YFP in the FLAG-ST3 immunoprecipitates [14]: significantly reduced; constitutive Stat3 activation [15]: significantly inhibited; constitutive Stat3 activation [16]: significantly inhibited; pTyr705 Stat3 levels [17]: significantly diminished; total Stat3 protein level [17]: remained unchanged; v-Src-mediated pLucTKS3 induction [18]: significantly inhibited; v-Src-mediated induction of pLucSRE [19]: not affected; Stat3 activity in control tumor tissue lysates (Stat3): dose-dependent abrogation
